# Results: patent US8980938B2, “CXCR2 inhibitors” (Sanofi, priority 2006, dated 2015)
# Molecular target: human CXCR2 (Homo sapiens (Human), UniProt P25025)
# Assay: CXCR2 inhibition: calcium fluorescence assay (FLIPR) with chemokine IL-8
# Assay type: cell-based
# Settings: CHO-K1 cells stably transfected with human CXCR2 and Gα16, Fluo-4 calcium response
# Text: Determination of CXCR2 Inhibition: Calcium Fluorescence Assay (FLIPR)
# The assay is based on the detection of intracellular calcium changes detected by the selective, calcium-chelating dye, Fluo-4 (Molecular Probes). A large fluorescence intensity increase is observed upon calcium association with Fluo-4. The dye is delivered to the cell interior using an acetoxymethylester form of Fluo-4, where the intracellular esterase activity results in the charged species being released and trapped within the cytoplasm of the cell. […] By co-expressing the CXCR2 receptor and the promiscuous Gα16 protein, activation of this chemokine receptor is directed into this phospholipase C cascade resulting in intracellular calcium mobilization.
# The CHO-K1 cells stably transfected with human CXCR2 and the promiscuous Gα16 protein are maintained in a log phase of growth at 37° C. and 5% CO2 in the following media: Iscove's, 10% FBS, 1X Penicillin-Streptomycin, 400 μg/ml G418 and 350 μg/ml Zeocin. Approximately 24-48 hours prior to the assay, 20,000-30,000 cells/well are plated onto a 96-well black/clear bottomed assay plate (Becton Dickinson) with a well volume of 180 μl. For dye loading the culture medium is carefully removed and replaced by 100 μl/well dye solution (4 μM Fluo-4 in 135 mM NaCl, 5 mM KCl, 1 mM magnesium sulphate, 5 mM glucose, 20 mM hepes, 2.5 mM probenecid; pH 7.4). Cells are incubated for 1 h at 37° C., and then washed 3× with buffer. After washing 90 μl buffer/well are left. Increasing concentrations of compound is added in 45 μl buffer (4× concentrated) followed by 10 min incubation at 37° C. Then the chemokine (10-100 nM) is applied in 45 μl buffer (4× concentrated) and the measurement is performed for 2 min. The IC50 value of a compound can be determined by calculation of % inhibition of total calcium response to the chemokine.
# CXCR2 Inhibition with Chemokine IL-8 for Selected Example Compounds: […]
# human CXCR2, sequence (P25025 whole entry): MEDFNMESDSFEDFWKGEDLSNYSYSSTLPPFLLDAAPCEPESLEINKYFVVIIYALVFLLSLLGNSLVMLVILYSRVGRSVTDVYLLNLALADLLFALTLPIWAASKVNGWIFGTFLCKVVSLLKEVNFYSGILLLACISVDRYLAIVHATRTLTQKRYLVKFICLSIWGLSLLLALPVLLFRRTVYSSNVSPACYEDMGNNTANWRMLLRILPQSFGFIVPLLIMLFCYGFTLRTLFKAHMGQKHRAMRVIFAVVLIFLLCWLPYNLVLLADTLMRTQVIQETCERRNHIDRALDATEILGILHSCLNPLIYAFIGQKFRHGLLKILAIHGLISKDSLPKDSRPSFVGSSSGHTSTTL
row,Compound,IC50 [nM]
1,"CC(C)(NC(=O)c1ccc2c(c1OCCC1CCCCC1)CCCC2)C(=O)O [Example 2, 2-{[1-(2-Cyclohexyl-ethoxy)-5,6,7,8-tetrahydro-naphthalene-2-carbonyl]-amino}-2-methyl-propionic acid]",1400
2,"CC(C)(NC(=O)c1ccc2c(c1OCCOc1ccccc1)CCCC2)C(=O)O [Example 3, 2-Methyl-2-{[1-(2-phenoxy-ethoxy)-5,6,7,8-tetrahydro-naphthalene-2-carbonyl]-amino}-propionic acid]",1000
3,"CC(C)(NC(=O)c1ccc2c(c1OCCCCc1ccccc1)CCCC2)C(=O)O [Example 5, 2-Methyl-2-{[1-(4-phenyl-butoxy)-5,6,7,8-tetrahydro-naphthalene-2-carbonyl]-amino}-propionic acid]",2000
4,"CC(C)(NC(=O)c1ccc2c(c1OCCCOc1ccccc1)CCCC2)C(=O)O [Example 7, 2-Methyl-2-{[1-(3-phenoxy-propoxy)-5,6,7,8-tetrahydro-naphthalene-2-carbonyl]-amino}-propionic acid]",2100
5,"CC(C)(NC(=O)c1ccc2ccsc2c1OCCCc1ccccc1)C(=O)O [Example 8, 2-Methyl-2-{[7-(3-phenyl-propoxy)-benzo[b]thiophene-6-carbonyl]-amino}-propionic acid]",600
6,"CC(C)(NC(=O)c1ccc2ccsc2c1OCCOc1ccc(F)cc1)C(=O)O [Example 11, 2-({7-[2-(4-Fluoro-phenoxy)-ethoxy]-benzo[b]thiophene-6-carbonyl}-amino)-2-methyl-propionic acid]",800
7,"CC(C)(NC(=O)c1ccc2sccc2c1OCCOc1ccccc1)C(=O)O [Example 12, 2-Methyl-2-{[4-(2-phenoxy-ethoxy)-benzo[b]thiophene-5-carbonyl]-amino}-propionic acid]",1700
